Measurements: patent US12011449B2, “Therapeutic combinations comprising a c-RAF inhibitor” (Novartis AG, priority 2016, dated 2024)
Like-named read-outs stand apart in the source and are kept apart here.

Assays:
IPC298 = assay: Proliferation, CellTiter-Glo 72 h, IPC298; assay type: cell-based; conditions: Homo sapiens, IPC-298, IPC298, Melanoma, BRAF WT, NRAS Q61L
From the text: (§1) Note that activity is especially strong on cell lines that harbor at least one mutation in BRAF or RAS.

[1] = system: Calu-6 (KRAS Q61K), HCT116 (KRAS G13D); assay: Cell-based proliferation, Calu-6 and HCT116; conditions: Homo sapiens
[2] = system: non-small cell lung cancer (NSCLC); assay: Phase I dose finding study, tumor response (RECIST); assay type: in vivo, human; conditions: one NSCLC subject, 1200 mg QD, preliminary
Procedure: The recommended starting dose and regimen of Compound A single agent in this study is 100 mg QD orally based on the preclinical safety, tolerability data, PK/PD data obtained in preclinical studies, as well as exploratory human efficacious dose range projection. […] For maximum flexibility of dosing, Compound A may be prepared as 50 mg and/or 100 mg tablets for oral administration. A proposed formulation for clinical use of Compound A includes Compound A combined with one or more excipients selected from hydroxypropylmethylcellulose (Hypromellose), colloidal silicon dioxide, microcrystalline cellulose, polyvinylpyrrolidone (Povidone), and magnesium stearate, and can be prepared in the form of tablets for oral administration, suitably containing 50 mg or 100 mg of Compound A. This was further confirmed by preliminary results obtained from the clinical trial.

HuP-T4 = assay: Proliferation, CellTiter-Glo 72 h, HuP-T4; assay type: cell-based; conditions: Homo sapiens, HuP-T4, Pancreas, BRAF WT, KRAS G12V
From the text: as §1

A375/NRAS Q61K = assay: Anti-proliferative effect in mechanistic A375 models, A375/NRAS Q61K; assay type: cell-based; conditions: Homo sapiens, A-375, doxycycline-induced, 72 hours
Procedure: (§2) To investigate the activity of Compound A in BRAF V600 mutant melanoma cells refractory to BRAF and/or MEK inhibitors, the anti-proliferative activity of Compound A in the mechanistic models derived from the BRAF V600 melanoma cell line A375 expressing mutations of MEK1/2, NRAS, or a splice variant of BRAF was evaluated.

HCC827 = assay: Proliferation, CellTiter-Glo 72 h, HCC827; assay type: cell-based; conditions: Homo sapiens, HCC827, NSCLC, BRAF WT, RAS WT
From the text: as §1

[3] = system: human ovarian Hey-A8 xenograft; assay: Hey-A8 ovarian xenograft in mice; assay type: in vivo; conditions: doses as low as 30 mg/kg QD
Procedure: (§3) Regressions were also achieved in a second human NSCLC model, NCI-H358, at the 200 mg/kg QD dose in mice and in the human ovarian Hey-A8 xenograft at doses as low as 30 mg/kg QD in mice.

PSN1 = assay: Proliferation, CellTiter-Glo 72 h, PSN1; assay type: cell-based; conditions: Homo sapiens, PSN1, Pancreas, BRAF WT, KRAS G12R
From the text: as §1

[4] = system: Calu-6 (KRAS Q61K) xenograft; assay: Calu-6 xenograft in nude rats; assay type: in vivo
A375/MEK1 E203K = assay: Anti-proliferative effect in mechanistic A375 models, A375/MEK1 E203K; assay type: cell-based; conditions: Homo sapiens, A-375, doxycycline-induced, 72 hours
Procedure: as §2

A375/MEK1 C121S = assay: Anti-proliferative effect in mechanistic A375 models, A375/MEK1 C121S; assay type: cell-based; conditions: Homo sapiens, A-375, doxycycline-induced, 72 hours
Procedure: as §2

NCI-H2073 = assay: Proliferation, CellTiter-Glo 72 h, NCI-H2073; assay type: cell-based; conditions: Homo sapiens, NCI-H2073, NSCLC, BRAF WT, RAS WT
From the text: as §1

[5] = system: Calu-6 (KRAS Q61K) xenograft; assay: Calu-6 xenograft in nude mice; assay type: in vivo
Procedure: (§4) Female nude tumor bearing Calu6 mice, n=6 per group were randomized into treatment groups on day 17 following tumor implantation, when the average tumor volume was 180 mm3. Treatments with compound A were initiated on Day 17 and continued for 16 days. Dosing volume was 10 mL/kg. Tumor volumes were collected at the time of randomization and twice weekly thereafter for the study duration.
as §3

[6] = Clinical PK of Compound A tablets, once daily, fasted subjects; assay type: in vivo, human; conditions: plasma; for AUC: day 1 of dosing, read-out: Mean plasma exposure over the dose interval of 24 hours (AUCtau); for Cmax: oral tablets, fasted subjects, read-out: Maximum plasma concentration (Cmax)
Procedure: Compound A was formulated with hydroxypropylmethylcellulose/Hypromellose, colloidal silicon dioxide, microcrystalline cellulose, polyvinylpyrrolidone/Povidone and magnesium stearate, and formed into tablets containing about 50 mg of Compound A. A number of tablets sufficient to provide a desired dosage were administered once daily to fasted subjects. Subjects were treated at doses of 100 mg once per day, or 200 mg once per day. Serial blood samples for PK assessments were collected up to 48 hours after the first dose of Compound A (Cycle 1 Day 1), and up to 24 hours after multiple doses (Cycle 1 Day 15). […] Mean plasma exposure over the dose interval of 24 hours (AUCtau) on day 1 of dosing was 5679 hr·ng/ml and 10019 hr·ng/ml after the 100 mg and 200 mg doses of Compound A, respectively. […] As this study is on-going, all data presented are considered preliminary.

Calu-6 = assay: Proliferation, CellTiter-Glo 72 h, Calu-6; assay type: cell-based; conditions: Homo sapiens, Calu-6, NSCLC, BRAF WT, KRAS Q61K
From the text: as §1

A375/BRAFp61-V600E = assay: Anti-proliferative effect in mechanistic A375 models, A375/BRAFp61-V600E; assay type: cell-based; conditions: Homo sapiens, A-375, doxycycline-induced, 72 hours
Procedure: as §2

HCT116 = assay: Proliferation, CellTiter-Glo 72 h, HCT116; assay type: cell-based; conditions: Homo sapiens, HCT-116, HCT116, Colorectal, BRAF WT, KRAS G13D
From the text: as §1

TCC-PAN2 = assay: Proliferation, CellTiter-Glo 72 h, TCC-PAN2; assay type: cell-based; conditions: Homo sapiens, TCC-PAN2, Pancreas, BRAF WT, KRAS G12R
From the text: as §1

A375/MEK1 Q56P = assay: Anti-proliferative effect in mechanistic A375 models, A375/MEK1 Q56P; assay type: cell-based; conditions: Homo sapiens, A-375, doxycycline-induced, 72 hours
Procedure: as §2

KRASmt NSCLC models = assay: Human KRAS-mutant xenograft models, overall statements; assay type: in vivo
Procedure: (§5) SCID beige female tumor-bearing NCI-H358 mice, n=8 per group, were randomized into 3 groups 14 days post tumor cell inoculation with an average tumor volume range of 259.44-262.47 mm^3.
as §4
Nude female mice tumor bearing NCI-H358, n=8 per group, were randomized into 2 groups with an average tumor volume range of 275.74 mm3.

PC3 = assay: Proliferation, CellTiter-Glo 72 h, PC3; assay type: cell-based; conditions: Homo sapiens, PC-3, PC3, Prostate, BRAF WT, RAS WT
From the text: as §1

[7] = system: A375 derivatives expressing mutations of MEK1/2, NRAS, or a splice variant of BRAF; assay: IC50 shift of resistant A375 models versus parental A375; assay type: cell-based, human
Procedure: as §2

WM2664 = assay: Proliferation, CellTiter-Glo 72 h, WM2664; assay type: cell-based; conditions: Homo sapiens, WM 266-4, WM2664, Melanoma, BRAF V600D, RAS WT
From the text: as §1

[8] = system: DUSP6 (dual specificity phosphatase 6); assay: DUSP6 pharmacodynamic biomarker in vivo; conditions: subject receiving a dosage associated with efficacious plasma levels
From the text: In addition, an efficacious dosage can be determined by monitoring biomarkers indicative of MAP kinase pathway inhibition.

[9] = system: NCI-H358 (KRAS G12C) xenograft; assay: NCI-H358 xenograft in mice; assay type: in vivo; conditions: 200 mg/kg QD
Procedure: as §5, §3

HeyA8 = assay: Proliferation, CellTiter-Glo 72 h, HeyA8; assay type: cell-based; conditions: Homo sapiens, HEY A8, HeyA8, Ovarian, BRAF G464E, KRAS G12D
From the text: as §1

[10] = system: Calu-6 human NSCLC xenograft; assay: Calu-6 NSCLC subcutaneous xenograft, single agents and combination; assay type: in vivo; conditions: for durability of tumor response: under treatment, 42 days post dosing
Procedure: Calu-6 NSCLC tumors were established in athymic female mice by subcutaneous injection of 10 million cells in 50% Matrigel™ into the flank of each mouse. […] A-B) Tumor volumes of treatment groups vs. days post randomization. C) Mean percent change in body weight from initial.
Combined treatment with Compound A and Compound B led to increased depth and durability of tumor response compared to either single agent in the human NSCLC xenograft Calu-6. […] Combining Compound A dosed at 30 mg/kg qd with Compound B dosed at either 50 mg/kg qd or 75 mg/kg q2d achieved 66% and 51% regressions, respectively, 17 days post dosing. In addition to the increased depth of response, the combination of Compound A and Compound B also led to an increased durability of response.

A375 [11] = assay: Anti-proliferative effect in mechanistic A375 models, parental A375; assay type: cell-based; conditions: Homo sapiens, A-375, 72 hours, CellTiter-Glo
Procedure: as §2

A375/MEK2 Q60P = assay: Anti-proliferative effect in mechanistic A375 models, A375/MEK2 Q60P; assay type: cell-based; conditions: Homo sapiens, A-375, doxycycline-induced, 72 hours
Procedure: as §2

A375 [12] = assay: Proliferation, CellTiter-Glo 72 h, A375; assay type: cell-based; conditions: Homo sapiens, A-375, A375, Melanoma, BRAF V600E, RAS WT
From the text: as §1

PSN1 (KRAS^G12R) = assay: 3 day proliferation assay, PSN1; assay type: cell-based; conditions: Homo sapiens, 72 h, read-out: IC50 cell growth
AsPC-1 (KRAS^G12D) = assay: 3 day proliferation assay, AsPC-1; assay type: cell-based; conditions: Homo sapiens, ASPC1, 72 h, read-out: IC50 cell growth
HeyA8 (KRAS^G12D) = assay: 3 day proliferation assay, HeyA8; assay type: cell-based; conditions: Homo sapiens, HEY A8, 72 h, read-out: IC50 cell growth
Calu6 (KRAS^Q61K) = assay: 3 day proliferation assay, Calu6; assay type: cell-based; conditions: Homo sapiens, Calu-6, 72 h, read-out: IC50 cell growth

Cc1ccc(NC(=O)c2ccnc(C(F)(F)F)c2)cc1-c1cc(OCCO)nc(N2CCOCC2)c1 [Compound A, N-(3-(2-(2-hydroxyethoxy)-6-morpholinopyridin-4-yl)-4-methylphenyl)-2-(trifluoromethyl)isonicotinamide]
IC50 (IPC298): 250 nM
IC50 [1]: 200 to 1200 nM
partial response according to RECIST [2]: −35%
IC50 (HuP-T4): 650 nM
IC50 (A375/NRAS Q61K): 950 nM
IC50 (HCC827): > 20000 nM
predicted half-life (Predicted human PK): ~9 h
anti-tumor effect [3]: Regressions
IC50 (PSN1): 680 nM
anti-tumor effect ([4]; nude rats, 75 and 150 mg/kg QD): regressions
anti-tumor effect ([4]; rats, 35 mg/kg QD): Tumor stasis
IC50 (A375/MEK1 E203K): 1050 nM
IC50 (A375/MEK1 C121S): 1140 nM
IC50 (NCI-H2073): 18200 nM
anti-tumor effect ([5]; mice, 30 mg/kg QD): Tumor stasis
anti-tumor effect ([5]; nude mice, 100, 200, and 300 mg/kg once daily (QD)): regressions
AUC ([6]; human, oral, 100 mg): 5680 ng·h/mL
AUC ([6]; human, oral, 200 mg): 10000 ng·h/mL
half-life ([6]; human, oral, in patients): 23 to 24 h
Cmax ([6]; human, single 100 mg dose): 447 ng/mL
Cmax ([6]; human, single 200 mg dose): 889 ng/mL
accumulation ratio ([6]; once daily dosing of 100 mg): 1.8
IC50 (Calu-6): 1500 nM
IC50 (A375/BRAFp61-V600E): 720 nM
IC50 (HCT116): 470 nM
IC50 (TCC-PAN2): 420 nM
IC50 (A375/MEK1 Q56P): 1150 nM
single agent anti-tumor activity (KRASmt NSCLC models; H358, Calu6, H727 models, oral daily): showed single agent activity
tolerability (body weight loss) (KRASmt NSCLC models; in all cases (KRAS-mutant xenograft models)): well tolerated as judged by lack of significant body weight loss
IC50 (PC3): > 20000 nM
increase in IC50 in resistant models [7]: 2-3 fold
IC50 (WM2664): 450 nM
in vivo levels of DUSP6 [8]: drop
anti-tumor effect [9]: Regressions
IC50 (HeyA8): 210 nM
T/C ([10]; Compound A 30 mg/kg qd, oral, 17 days post dosing): 26%
durability of tumor response [10]: progressed under treatment
IC50 (A375 [11]): 420 nM
IC50 (A375/MEK2 Q60P): 1120 nM
IC50 (A375 [12]): 240 nM

CNC[C@@H](NC(=O)c1ccc(-c2nc([C@H]3CC[C@H](O)[C@@H](F)C3)cnc2N)cc1F)c1cc(F)cc(Br)c1 [Compound B, 4-(3-amino-6-((1S,3S,4S)-3-fluoro-4-hydroxycyclohexyl)pyrazin-2-yl)-N-((S)-1-(3-bromo-5-fluorophenyl)-2-(methylamino)ethyl)-2-fluorobenzamide]
IC50 (PSN1 (KRAS^G12R)): < 1000 nM
IC50 (AsPC-1 (KRAS^G12D)): < 1000 nM
IC50 (HeyA8 (KRAS^G12D)): < 1000 nM
IC50 (Calu6 (KRAS^Q61K)): < 1000 nM
regressions ([10]; Compound B 50 mg/kg qd, oral, 17 days post dosing): 22%
T/C ([10]; Compound B 75 mg/kg q2d, oral, 17 days post dosing): 4%
durability of tumor response [10]: progressed under treatment

Cn1cnc2c(F)c(Nc3ccc(Br)cc3Cl)c(C(=O)NOCCO)cc21 [Selumetinib]
IC50 (A375/NRAS Q61K): 5500 nM
IC50 (A375/MEK1 E203K): 1810 nM
IC50 (A375/MEK1 C121S): 2330 nM
IC50 (A375/BRAFp61-V600E): > 10000 nM
IC50 (A375/MEK1 Q56P): 5350 nM
IC50 (A375 [11]): 36 nM
IC50 (A375/MEK2 Q60P): 4840 nM

CCCS(=O)(=O)Nc1ccc(F)c(C(=O)c2c[nH]c3ncc(-c4ccc(Cl)cc4)cc23)c1F [Vemurafenib]
IC50 (A375/NRAS Q61K): 9380 nM
IC50 (A375/MEK1 E203K): 5580 nM
IC50 (A375/MEK1 C121S): 8700 nM
IC50 (A375/BRAFp61-V600E): 8510 nM
IC50 (A375/MEK1 Q56P): 9620 nM
IC50 (A375 [11]): 66 nM
IC50 (A375/MEK2 Q60P): 5280 nM
